Experimental data from patent publication US10654831B2, “Antiproliferative pyrimidine-based compounds” (G1 Therapeutics, Inc., priority 2016, dated 2020).

Experiments:
Format in all cases: biochemical
CDK2/CycE = CDK2/CycE (Homo sapiens (Human), UniProt P24941); assay: CDK2/CycE kinase assay (Caliper microfluidic); conditions: at Km for ATP
Protocol: (§1) Selected compounds disclosed herein were tested in CDK4/cyclinD1, CDK2/CycA and CDK2/cyclinE kinase assays by Nanosyn (Santa Clara, Calif.) to determine their inhibitory effect on these CDKs. The assays were performed using microfluidic kinase detection technology (Caliper Assay Platform). The compounds were tested in 12-point dose-response format in singlicate at Km for ATP. Phosphoacceptor substrate peptide concentration used was 1 μM for all assays and Staurosporine was used as the reference compound for all assays. Specifics of each assay are as described below:
CDK2/CyclinE: Enzyme concentration: 0.28 nM; ATP concentration: 100 μM; Incubation time: 1 hr.

CDK4/CycD = CDK4/CycD (Homo sapiens (Human), UniProt P11802); assay: CDK4/CycD kinase assay (Caliper microfluidic); conditions: at Km for ATP
Protocol: as §1
CDK4/CyclinD1: Enzyme concentration: 1 nM; ATP concentration: 200 μM; Incubation time: 10 hr.

CDK9/CycT = CDK9/CycT (Homo sapiens (Human), UniProt P50750); assay: CDK9/CycT kinase assay
CDK5/p35 = CDK5/p35 (Homo sapiens (Human), UniProt Q00535); assay: CDK5/p35 kinase assay
CDK7/CycH/MAT1 = CDK7/CycH/MAT1 (Homo sapiens (Human), UniProt P50613); assay: CDK7/CycH/MAT1 kinase assay
CDK2/CycA = CDK2/CycA (Homo sapiens (Human), UniProt P24941); assay: CDK2/CycA kinase assay (Caliper microfluidic); conditions: at Km for ATP
Protocol: as §1
CDK2/CyclinA: Enzyme concentration: 0.2 nM; ATP concentration: 50 μM; Incubation time: 3 hr.

CDK6/CycD3 = CDK6/CycD3 (Homo sapiens (Human), UniProt Q00534); assay: CDK6/CycD3 kinase assay
Protocol: [The procedure below names another target; the source lists this target under the same test.] as §1, with “assays.” for “assays. Specifics of each assay are as described below:”

CDK5/p25 = CDK5/p25 (Homo sapiens (Human), UniProt Q00535); assay: CDK5/p25 kinase assay
CDK5/p25, sequence (Q00535 whole entry): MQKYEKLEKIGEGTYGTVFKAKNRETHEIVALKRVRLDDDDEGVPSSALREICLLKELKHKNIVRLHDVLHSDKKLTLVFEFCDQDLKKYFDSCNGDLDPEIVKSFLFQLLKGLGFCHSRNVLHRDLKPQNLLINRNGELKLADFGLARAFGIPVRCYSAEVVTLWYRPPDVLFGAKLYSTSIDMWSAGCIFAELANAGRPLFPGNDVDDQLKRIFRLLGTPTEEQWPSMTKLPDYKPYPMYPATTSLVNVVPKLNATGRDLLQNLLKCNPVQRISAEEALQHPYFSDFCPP

CDK6/CycD3, sequence (Q00534 whole entry): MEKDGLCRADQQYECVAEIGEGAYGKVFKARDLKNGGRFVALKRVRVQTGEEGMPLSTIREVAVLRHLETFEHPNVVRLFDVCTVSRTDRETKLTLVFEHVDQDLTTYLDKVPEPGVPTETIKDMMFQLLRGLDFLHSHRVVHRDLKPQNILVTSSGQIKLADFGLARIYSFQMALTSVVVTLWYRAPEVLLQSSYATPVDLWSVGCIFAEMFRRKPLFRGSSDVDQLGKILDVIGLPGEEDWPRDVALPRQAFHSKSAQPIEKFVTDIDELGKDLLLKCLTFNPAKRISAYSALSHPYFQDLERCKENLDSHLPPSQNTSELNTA
CDK6/CycD3, sequence (P30281 whole entry partner): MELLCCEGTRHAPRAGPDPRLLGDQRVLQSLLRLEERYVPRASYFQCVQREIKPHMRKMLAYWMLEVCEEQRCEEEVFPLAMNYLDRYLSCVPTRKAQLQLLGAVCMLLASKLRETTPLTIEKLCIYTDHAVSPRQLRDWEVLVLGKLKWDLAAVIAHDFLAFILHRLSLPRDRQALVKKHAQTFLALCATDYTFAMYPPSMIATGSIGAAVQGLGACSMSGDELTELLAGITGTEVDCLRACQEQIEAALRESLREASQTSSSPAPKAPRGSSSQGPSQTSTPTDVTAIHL
CDK4/CycD, sequence (P11802 whole entry): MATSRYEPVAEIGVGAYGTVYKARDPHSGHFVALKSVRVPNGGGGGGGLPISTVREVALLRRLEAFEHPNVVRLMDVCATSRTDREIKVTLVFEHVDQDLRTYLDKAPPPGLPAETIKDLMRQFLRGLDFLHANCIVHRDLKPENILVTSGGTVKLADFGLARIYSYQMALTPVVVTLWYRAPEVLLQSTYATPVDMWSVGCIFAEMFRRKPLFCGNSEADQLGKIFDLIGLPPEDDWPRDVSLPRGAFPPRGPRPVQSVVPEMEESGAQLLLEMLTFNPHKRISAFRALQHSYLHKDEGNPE
CDK4/CycD, sequence (P24385 whole entry partner): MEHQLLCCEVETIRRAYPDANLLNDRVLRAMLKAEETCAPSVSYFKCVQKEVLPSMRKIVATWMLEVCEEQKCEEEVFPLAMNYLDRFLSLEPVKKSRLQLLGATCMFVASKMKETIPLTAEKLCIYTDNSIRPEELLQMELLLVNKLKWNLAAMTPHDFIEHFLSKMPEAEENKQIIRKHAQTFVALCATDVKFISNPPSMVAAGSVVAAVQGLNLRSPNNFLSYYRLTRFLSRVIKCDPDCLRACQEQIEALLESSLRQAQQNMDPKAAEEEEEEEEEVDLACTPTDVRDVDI
CDK7/CycH/MAT1, sequence (P50613 whole entry): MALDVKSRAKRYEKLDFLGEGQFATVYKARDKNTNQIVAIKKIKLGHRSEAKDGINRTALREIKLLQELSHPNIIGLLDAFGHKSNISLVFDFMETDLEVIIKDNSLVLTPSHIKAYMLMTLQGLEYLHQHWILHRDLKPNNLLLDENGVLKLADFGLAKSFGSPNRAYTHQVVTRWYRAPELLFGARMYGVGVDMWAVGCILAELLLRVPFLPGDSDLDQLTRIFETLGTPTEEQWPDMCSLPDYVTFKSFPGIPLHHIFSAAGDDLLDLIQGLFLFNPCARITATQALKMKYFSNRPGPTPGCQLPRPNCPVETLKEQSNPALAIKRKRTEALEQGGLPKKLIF
CDK7/CycH/MAT1, sequence (P51946 whole entry partner): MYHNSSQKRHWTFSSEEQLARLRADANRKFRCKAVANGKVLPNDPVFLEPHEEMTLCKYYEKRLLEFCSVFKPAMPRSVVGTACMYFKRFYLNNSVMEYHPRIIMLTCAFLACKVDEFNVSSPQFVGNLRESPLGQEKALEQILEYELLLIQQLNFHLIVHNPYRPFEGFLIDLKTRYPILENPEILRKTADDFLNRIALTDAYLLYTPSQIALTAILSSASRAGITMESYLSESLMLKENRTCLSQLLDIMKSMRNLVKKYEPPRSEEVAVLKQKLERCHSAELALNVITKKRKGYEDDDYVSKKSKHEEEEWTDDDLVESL
CDK7/CycH/MAT1, sequence (P51948 whole entry partner): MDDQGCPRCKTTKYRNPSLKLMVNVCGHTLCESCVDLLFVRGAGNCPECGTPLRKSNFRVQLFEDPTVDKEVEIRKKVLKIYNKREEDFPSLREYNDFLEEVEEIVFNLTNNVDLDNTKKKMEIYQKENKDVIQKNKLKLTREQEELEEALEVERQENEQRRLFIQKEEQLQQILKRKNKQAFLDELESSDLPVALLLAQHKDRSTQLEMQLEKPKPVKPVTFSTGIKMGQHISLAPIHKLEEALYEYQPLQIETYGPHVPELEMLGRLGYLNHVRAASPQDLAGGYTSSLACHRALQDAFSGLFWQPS
CDK9/CycT, sequence (P50750 whole entry): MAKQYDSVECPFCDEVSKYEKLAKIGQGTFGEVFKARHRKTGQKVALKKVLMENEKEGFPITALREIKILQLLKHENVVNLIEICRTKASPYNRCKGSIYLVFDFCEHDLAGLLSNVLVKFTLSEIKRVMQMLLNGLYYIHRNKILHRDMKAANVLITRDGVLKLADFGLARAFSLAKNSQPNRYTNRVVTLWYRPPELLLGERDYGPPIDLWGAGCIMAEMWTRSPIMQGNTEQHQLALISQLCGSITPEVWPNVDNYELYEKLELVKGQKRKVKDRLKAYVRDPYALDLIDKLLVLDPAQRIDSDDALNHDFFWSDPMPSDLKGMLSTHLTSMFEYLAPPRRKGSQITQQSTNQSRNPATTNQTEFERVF
CDK9/CycT, sequence (O60563 whole entry partner): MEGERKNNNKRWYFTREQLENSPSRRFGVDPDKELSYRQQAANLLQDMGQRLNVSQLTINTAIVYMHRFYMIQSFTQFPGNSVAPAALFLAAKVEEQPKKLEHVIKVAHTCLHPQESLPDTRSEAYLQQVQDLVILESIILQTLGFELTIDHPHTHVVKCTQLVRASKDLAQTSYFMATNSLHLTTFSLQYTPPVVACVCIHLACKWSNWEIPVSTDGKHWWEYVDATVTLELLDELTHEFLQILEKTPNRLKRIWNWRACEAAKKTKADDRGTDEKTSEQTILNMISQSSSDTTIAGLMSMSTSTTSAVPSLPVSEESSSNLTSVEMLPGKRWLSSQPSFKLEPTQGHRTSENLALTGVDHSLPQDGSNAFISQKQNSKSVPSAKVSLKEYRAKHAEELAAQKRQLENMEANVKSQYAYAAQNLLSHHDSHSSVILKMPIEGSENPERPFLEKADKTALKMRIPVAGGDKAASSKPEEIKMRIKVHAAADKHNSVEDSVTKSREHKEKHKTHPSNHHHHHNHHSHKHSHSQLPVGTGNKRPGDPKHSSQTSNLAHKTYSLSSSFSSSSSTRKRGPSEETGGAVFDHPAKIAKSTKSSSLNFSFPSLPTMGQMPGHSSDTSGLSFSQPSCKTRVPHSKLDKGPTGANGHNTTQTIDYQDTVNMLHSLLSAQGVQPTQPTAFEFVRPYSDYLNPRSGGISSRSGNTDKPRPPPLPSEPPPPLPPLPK
CDK5/p35, sequence (Q00535 whole entry): as the sequence (Q00535 whole entry) above
CDK5/p35, sequence (Q15078 whole entry partner): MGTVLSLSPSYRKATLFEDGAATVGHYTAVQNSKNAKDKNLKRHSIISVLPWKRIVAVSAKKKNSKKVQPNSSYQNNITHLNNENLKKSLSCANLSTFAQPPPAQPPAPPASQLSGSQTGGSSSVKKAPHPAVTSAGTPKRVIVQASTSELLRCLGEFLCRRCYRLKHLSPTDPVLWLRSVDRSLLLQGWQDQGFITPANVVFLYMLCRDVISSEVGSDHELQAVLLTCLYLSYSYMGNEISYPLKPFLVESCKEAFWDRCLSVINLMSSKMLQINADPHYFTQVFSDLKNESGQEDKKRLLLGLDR

Structure (SMILES) | IC50 (CDK2/CycE) [µM] | IC50 (CDK4/CycD) [µM] | IC50 (CDK9/CycT) [µM] | IC50 (CDK5/p35) [µM] | IC50 (CDK7/CycH/MAT1) [µM] | IC50 (CDK2/CycA) [µM] | IC50 (CDK6/CycD3) [µM] | IC50 (CDK5/p25) [µM]
CN1CCN(c2ccc(Nc3nccc(N4C(=O)NCC45CCCCC5)n3)nc2)CC1 [compound 6, 1-(2-{[5-(4-methylpiperazin-1-yl)pyridin-2-yl]amino}pyrimidin-4-yl)-1,3-diazaspiro[4.5]decan-2-one] | > 100 | 1 | 9.63 | > 100 | 95.9 | > 100 | 4.98 | > 100
CN1CCN(c2ccc(Nc3nccc(N4C(=O)N(C)CC45CCCCC5)n3)nc2)CC1 [compound 8, 3-Methyl-1-(2-{[5-(4-methylpiperazin-1-yl)pyridin-2-yl]amino}pyrimidin-4-yl)-1,3-diazaspiro[4.5]decan-2-one] | > 100 | 3.27 | > 100 | > 100 | > 100 | > 100 | 16.2 | > 100
CN1CCN(c2ccc(Nc3nccc(N4C(=O)N(Cc5ccccc5)CC45CCCCC5)n3)nc2)CC1 [compound 10, 3-benzyl-1-(2-{[5-(4-methylpiperazin-1-yl)pyridin-2-yl]amino}pyrimidin-4-yl)-1,3-diazaspiro[4.5]decan-2-one] | > 100 | 2.71 | > 100 | > 100 | > 100 | > 100 | 35.8 | > 100
CN1CCN(c2ccc(Nc3nccc(N4CCNC4=O)n3)nc2)CC1 [compound 16, 1-(2-{[5-(4-methylpiperazin-1-yl)pyridin-2-yl]amino}pyrimidin-4-yl)imidazolidin-2-one] | > 100 | 8.1 | 9.3 | 73 | 29.4 | > 100 | 3.4 | 95
CN1CCN(c2ccc(Nc3nccc(N4CC(=O)NCC45CCCCC5)n3)nc2)CC1 [compound 20, 1-(2-{[5-(4-Methylpiperazin-1-yl)pyridin-2-yl]amino}pyrimidin-4-yl)-1,4-diazaspiro[5.5]undecan-3-one] | > 100 | 0.44 | 0.75 | 38 | > 100 | > 100 | 1 | 39
CC(C)C1CC(=O)NN1c1ccnc(Nc2ccc(N3CCN(C)CC3)cn2)n1 (stereo not shown) [compound 28, 5-Isopropyl-1-(2-{[5-(4-methylpiperazin-1-yl)pyridin-2-yl]amino}pyrimidin-4-yl)pyrazolidin-3-one] |  | > 100 |  |  |  |  | > 100 | 
CN1CCN(c2ccc(Nc3nccc(N4CCNC(=O)C4)n3)nc2)CC1 [compound 32, 4-(2-{[5-(4-Methylpiperazin-1-yl)pyridin-2-yl]amino}pyrimidin-4-yl)piperazin-2-one] |  | 14.4 | 22.9 |  |  |  | 51 | 
C[C@H]1CNC(=O)CN1c1ccnc(Nc2ccc(N3CCN(C)CC3)cn2)n1 [compound 40, (5S)-5-Methyl-4-(2-{[5-(4-methylpiperazin-1-yl)pyridin-2-yl]amino}pyrimidin-4-yl)piperazin-2-one] | 71 | 1.7 |  |  |  | 88 | 5.7 | 
CC(C)[C@H]1CNC(=O)N1c1ccnc(Nc2ccc(N3CCN(C)CC3)cn2)n1 [compound 46, (5S)-5-Isopropyl-1-(2-{[5-(4-methylpiperazin-1-yl)pyridin-2-yl]amino}pyrimidin-4-yl)imidazolidin-2-one] | 23 | 0.761 |  |  |  | 9.7 | 3.3 | 
C[C@H]1CNC(=O)N1c1ccnc(Nc2ccc(N3CCN(C)CC3)cn2)n1 [compound 52, (5S)-5-methyl-1-(2-{[5-(4-methylpiperazin-1-yl)pyridin-2-yl]amino}pyrimidin-4-yl)imidazolidin-2-one] | 57 | 1.5 |  |  |  | 35.5 | 4 | 
CN1CCN(c2ccc(Nc3nccc(N4C(c5ccccc5)=NCC45CCCCC5)n3)nc2)CC1 [compound 53, N-(5-(4-methylpiperazin-1-yl)pyridin-2-yl)-4-(2-phenyl-1,3-diazaspiro[4.5]dec-2-en-1-yl)pyrimidin-2-amine] | > 100 | > 100 | > 100 | > 100 | > 100 | > 100 | 71.3 | > 100
CN1CCN(c2ccc(Nc3nccc(N4C(c5ccoc5)=NCC45CCCCC5)n3)nc2)CC1 [compound 54, 4-(2-(furan-3-yl)-1,3-diazaspiro[4.5]dec-2-en-1-yl)-N-(5-(4-methylpiperazin-1-yl)pyridin-2-yl)pyrimidin-2-amine] | > 100 | > 100 | > 100 | > 100 | > 100 | > 100 | > 100 | > 100
CN1CCN(c2ccc(Nc3nccc(N4C(c5ccsc5)=NCC45CCCCC5)n3)nc2)CC1 [compound 55, N-(5-(4-methylpiperazin-1-yl)pyridin-2-yl)-4-(2-(thiophen-3-yl)-1,3-diazaspiro[4.5]dec-2-en-1-yl)pyrimidin-2-amine] | > 100 | > 100 | > 100 | > 100 | > 100 | > 100 | > 100 | > 100
CC[C@H]1CC(=O)NN1c1ccnc(Nc2ccc(N3CCN(C)CC3)cn2)n1 [compound 56, (S)-5-ethyl-1-(2-((5-(4-methylpiperazin-1-yl)pyridin-2-yl)amino)pyrimidin-4-yl)pyrazolidin-3-one] | > 100 | 4 |  |  |  | > 100 | 33 | 
